Drawing on ChEMBL document CHEMBL5331122, “Structure-Activity Relationship Study of Antimicrobial Peptide PE2 Delivered Novel Linear Derivatives with Potential of Eradicating Biofilms and Low Incidence of Drug Resistance” (J Med Chem, 2023), this text covers HC10, MIC and hemolysis for seven compounds.

In general, MIC refers to the least concentration at which growth counts as inhibited.

In one data set the test system is Erythrocyte. As to the kind of experiment: Hemolytic activity in mouse red blood cell assessed as hemolysis incubated for 1 hr. The data set is classed as toxicity, cell-based. The conditions noted are these: dose 4-256 µg/ml.
The test system of a further data set is Pseudomonas aeruginosa. As to the kind of experiment: Antibacterial activity against Pseudomonas aeruginosa ATCC 27853 assessed as bacterial growth inhibition incubated for 18 hrs by broth microdilution method. The data set is classed as functional.
Data set [1] is described as follows: Hemolytic activity in mouse red blood cells assessed as hemolysis at 256 microg/ml incubated for 1 hr relative to control. The data set is classed as toxicity, cell-based, Erythrocyte. As to conditions: red blood cells (erythrocytes), at 256 µg/mL, read-out: Activity.
Another data set relates to Escherichia coli. As to the kind of experiment: Antibacterial activity against Escherichia coli ATCC 25922 assessed as bacterial growth inhibition incubated for 18 hrs by broth microdilution method. The data set is classed as functional.
Another data set concerns Klebsiella pneumoniae. Kind of data set: Antibacterial activity against Klebsiella pneumoniae ATCC 700603 assessed as bacterial growth inhibition incubated for 18 hrs by broth microdilution method. The data set is classed as functional.
In another data set the test system is Enterococcus faecalis. Kind of data set: Antibacterial activity against Enterococcus faecalis ATCC 29212 assessed as bacterial growth inhibition incubated for 18 hrs by broth microdilution method. The data set is classed as functional. A general note: In broth dilution the organism is exposed to a series of concentrations in liquid medium.
The subject of a further data set is Bacillus subtilis. Kind of data set: Antibacterial activity against Bacillus subtilis ATCC 23857 assessed as bacterial growth inhibition incubated for 18 hrs by broth microdilution method. The data set is classed as functional.
The next data set deals with Staphylococcus aureus. As to the kind of experiment: Antibacterial activity against Staphylococcus aureus ATCC 25923 assessed as bacterial growth inhibition incubated for 18 hrs by broth microdilution method. The data set is classed as functional.

Molecules are shown by their SMILES. ≈ marks a conversion by molar mass, not a printed value. Some results are limits rather than exact numbers.

As for `CCCCCC(=O)N[C@@H](CCN)C(=O)N[C@H](C(=O)N[C@@H](CCN)C(=O)N[C@H](Cc1ccccc1)C(=O)N[C@@H](CC(C)C)C(=O)N[C@@H](CCN)C(=O)N[C@@H](C(=O)N[C@@H](CC(C)C)C(=O)N[C@@H](Cc1ccccc1)C(N)=O)C(C)C)[C@@H](C)CC`, the HC10 with Erythrocyte stood at 512 µg/mL. Moreover, the minimal inhibitory concentration (MIC) with Pseudomonas aeruginosa amounted to 4 µg/mL (≈ 3.48 µM); in the data set with Escherichia coli, 16 µg/mL (≈ 13.9 µM); with Klebsiella pneumoniae, 32 µg/mL (≈ 27.9 µM); in the data set on Enterococcus faecalis it was 64 µg/mL (≈ 55.7 µM); in the data set on Bacillus subtilis it was 4 µg/mL (≈ 3.48 µM); in the data set on Staphylococcus aureus it was 16 µg/mL (≈ 13.9 µM). The hemolysis at 1 h, 256 µg/mL in data set [1] was under 5%.

As to `CCCCCC(=O)N[C@@H](CCN)C(=O)N[C@H](C(=O)N[C@@H](CCN)C(=O)N[C@H](Cc1ccccc1)C(=O)N[C@@H](CC(C)C)C(=O)N[C@H]1CCNC(=O)[C@H]([C@@H](C)O)NC(=O)[C@H](CC(C)C)NC(=O)[C@@H](C(C)C)NC1=O)[C@@H](C)CC`, the HC10 in the data set on Erythrocyte stood at 512 µg/mL. The MIC with Pseudomonas aeruginosa was 128 µg/mL (≈ 118 µM); in the data set on Escherichia coli, 16 µg/mL (≈ 14.7 µM); in the data set with Klebsiella pneumoniae, 128 µg/mL (≈ 118 µM); in the data set with Enterococcus faecalis, over 128 µg/mL; with Bacillus subtilis it was 4 µg/mL (≈ 3.69 µM); with Staphylococcus aureus it was 32 µg/mL (≈ 29.5 µM). Also, the hemolysis at 1 h, 256 µg/mL in data set [1] was under 5%.

Consider `CCCCCCCCCCCCCC(=O)N[C@@H](CCN)C(=O)N[C@H](C(=O)N[C@@H](CCN)C(=O)N[C@H](Cc1ccccc1)C(=O)N[C@@H](CC(C)C)C(=O)N[C@@H](CCN)C(=O)N[C@@H](C(=O)N[C@@H](CC(C)C)C(=O)N[C@H](C(N)=O)[C@@H](C)O)C(C)C)[C@@H](C)CC`, for which, in the data set with Erythrocyte, the HC10 is 32 µg/mL. Further, the MIC with Pseudomonas aeruginosa was 32 µg/mL (≈ 26.3 µM); in the data set on Escherichia coli it was 128 µg/mL (≈ 105 µM); in the data set on Klebsiella pneumoniae it was over 128 µg/mL; in the data set with Enterococcus faecalis, 16 µg/mL (≈ 13.2 µM); in the data set on Bacillus subtilis it was 16 µg/mL (≈ 13.2 µM); in the data set on Staphylococcus aureus it was 32 µg/mL (≈ 26.3 µM).

Take `C/C=C(/NC(=O)[C@H](CC(C)C)NC(=O)[C@H](NC(=O)[C@H](CCN)NC(=O)[C@H](CC(C)C)NC(=O)[C@@H](Cc1ccccc1)NC(=O)[C@H](CCN)NC(=O)[C@@H](NC(=O)[C@H](CCN)NC(=O)C[C@@H](O)CCC)[C@@H](C)CC)C(C)C)C(=O)O`: the HC10 in the data set on Erythrocyte is 512 µg/mL. Also, the minimal inhibitory concentration (MIC) in the data set with Pseudomonas aeruginosa is 32 µg/mL (≈ 29.1 µM); with Escherichia coli it was 64 µg/mL (≈ 58.1 µM); in the data set on Klebsiella pneumoniae, 128 µg/mL (≈ 116 µM); in the data set with Enterococcus faecalis it was over 128 µg/mL; in the data set with Bacillus subtilis, 32 µg/mL (≈ 29.1 µM); in the data set on Staphylococcus aureus it was over 128 µg/mL.

For `CCCCCCCCCCC(=O)N[C@@H](CCN)C(=O)N[C@H](C(=O)N[C@@H](CCN)C(=O)N[C@H](Cc1ccccc1)C(=O)N[C@@H](CC(C)C)C(=O)N[C@@H](CCN)C(=O)N[C@@H](C(=O)N[C@@H](CC(C)C)C(=O)N[C@H](C(N)=O)[C@@H](C)O)C(C)C)[C@@H](C)CC`, the HC10 in the data set on Erythrocyte amounted to 16 µg/mL. In addition, the MIC in the data set on Pseudomonas aeruginosa stood at 2 µg/mL (≈ 1.71 µM); in the data set with Escherichia coli it was 4 µg/mL (≈ 3.41 µM); in the data set with Klebsiella pneumoniae, 2 µg/mL (≈ 1.71 µM); with Enterococcus faecalis, 8 µg/mL (≈ 6.82 µM); in the data set on Bacillus subtilis it was 2 µg/mL (≈ 1.71 µM); with Staphylococcus aureus it was 2 µg/mL (≈ 1.71 µM).

Take `CC[C@H](C)[C@H](NC(=O)[C@@H](N)CCN)C(=O)N[C@@H](CCN)C(=O)N[C@H](Cc1ccccc1)C(=O)N[C@@H](CC(C)C)C(=O)N[C@@H](CCN)C(=O)N[C@@H](C(=O)N[C@@H](CC(C)C)C(=O)N[C@H](C(N)=O)[C@@H](C)O)C(C)C`: in the data set with Erythrocyte, the HC10 stood at 512 µg/mL. Moreover, the MIC in the data set on Pseudomonas aeruginosa is 32 µg/mL (≈ 31.9 µM); with Escherichia coli, 128 µg/mL (≈ 127 µM); with Klebsiella pneumoniae, over 128 µg/mL; in the data set with Enterococcus faecalis it was over 128 µg/mL; in the data set on Bacillus subtilis, 32 µg/mL (≈ 31.9 µM); with Staphylococcus aureus it was over 128 µg/mL.

With `CCCCCCCCCCCCC(=O)N[C@@H](CCN)C(=O)N[C@H](C(=O)N[C@@H](CCN)C(=O)N[C@H](Cc1ccccc1)C(=O)N[C@@H](CC(C)C)C(=O)N[C@@H](CCN)C(=O)N[C@@H](C(=O)N[C@@H](CC(C)C)C(=O)N[C@H](C(N)=O)[C@@H](C)O)C(C)C)[C@@H](C)CC`, the HC10 with Erythrocyte came to 8 µg/mL. Also, the minimum inhibitory concentration (MIC) was determined as 16 µg/mL (≈ 13.3 µM) in the data set on Pseudomonas aeruginosa; 8 µg/mL (≈ 6.66 µM) in the data set on Escherichia coli; 16 µg/mL (≈ 13.3 µM) with Klebsiella pneumoniae; 8 µg/mL (≈ 6.66 µM) in the data set with Enterococcus faecalis; 16 µg/mL (≈ 13.3 µM) in the data set with Bacillus subtilis; 32 µg/mL (≈ 26.7 µM) in the data set on Staphylococcus aureus.
